Experimental findings from patent publication US20040009973A1, “Novel potassium channels modulators” (4SC AG, priority 2002, published 2004) are described below.

Each structure is given as a SMILES string.

The assay has as its target T1, BK potassium channel, cloned hSlo (α-hSlo and β-bSlo) in CHO cells (Homo sapiens, UniProt Q12791).
T1 construct: expressed in transfected cells; host or cells: CHO cells, permanently transfected
In words: Em-Assay: membrane potential with voltage sensitive dye DiBAC(4)3, fluorescence plate reader. The class given is cell-based. To be noted: compound 50 μM; NS004 25 or 50 μM; hSlo transfected CHO cells; change in DiBAC(4)3 fluorescence intensity. From the text:
The large conductance, voltage-dependent and Ca^2+-activated potassium channel BK is a potassium selective ion channel and belongs to the subfamily of KCa channels. Four BK alpha-subunits form a functional channel that can be regulated by intracellular Ca^2+ concentration, membrane voltage, and other mechanisms like phosphorylation states or beta subunits. To test the biological activity of the compounds, we applied two different techniques, a fluorescence based assay using a voltage sensitive dye (Em-Assay) as well as exploiting electrophysiological methods.
CHO cells permanently transfected with cloned hSlo (α-hSlo and β-bSlo), yielding typical BK potassium currents (Zhou et al., Pflügers Arch., 436: 725-734 (1998), were used for the evaluation of compound activity. Activation or inhibition of BK channels in these cells leads to a change of the electrochemical gradient causing a hyperpolarized or depolarised membrane potential, respectively.
To determine changes in the membrane potential of the cells we used the voltage sensitive dye DiBAC(4)3 (Molecular Probes) in a kinetic assay system using a fluorescent plate reader (Manning and Sontheimer, J. Neurosci, Meth., 91: 73-81 (1999). The anionic bis-oxonol DiBAC(4)3 is a voltage sensitive dye which partitions from the extracellular environment into the cell where it reversibly binds to intracellular proteins, a kinetic process depending on the membrane potential of the cell. At depolarised potentials (i.e. at a reduced K^+ efflux due to blocked K^+ channels) the dye accumulates in the cell leading to an increased fluorescence intensity, due to its increased fluorescence if bound to cellular proteins. At hyperpolarized potentials (i.e. at an increased K^+ efflux due to the opening of K^+ channels), the dye partitions out of the cell causing a decreased fluorescence intensity.
hSlo transfected CHO cells where maintained in DMEM supplemented with 10% FCS, 250 μg/ml Geneticin, 100 μg/ml Hygromycin, 1×HT-Supplement, and 1×Non-essential Amino Acids and cultured in a humidified CO2 incubator. After trypsination, cells where plated with a density of 5×10^4 cells per well on a clear 96-well plate and incubated for 24 h. Cells where washed once with PBS, once with PBS containing 20 mM HEPES (adjusted to pH 7.4 with NaOH) and 2 μM DIBAC(4)3 (DPBS-DiBAC solution). 180 μl of the dPBS-DiBAC solution was then added to the cells and the plate incubated for 30-60 min at 37° C. During this time the dye could partition into the cells and reach a certain steady-state distribution, depending on the resting membrane potential. Test and reference compounds were stored as DMSO stock solutions and diluted in dPBS-DiBAC solution to the desired concentration.
Fluorescence intensity (Ex.: 485 nm/Em.: 520 nm) of each well was detected in the plate reader (Fluostar, BMG) every 60 seconds. After recording the baseline fluorescence for 7 minutes, 20 μl test—and reference compounds were added and the fluorescence intensity was detected for additional 15 minutes. Background was subtracted, data values were normalized and expressed as a change in fluorescence intensity against time. The change in fluorescence intensity caused by the test compounds was evaluated, compared to the effect of the reference compound NS004, and the ratio was determined (see Table I).

T1 sequence (Q12791 1-1178 isoform Q12791-5): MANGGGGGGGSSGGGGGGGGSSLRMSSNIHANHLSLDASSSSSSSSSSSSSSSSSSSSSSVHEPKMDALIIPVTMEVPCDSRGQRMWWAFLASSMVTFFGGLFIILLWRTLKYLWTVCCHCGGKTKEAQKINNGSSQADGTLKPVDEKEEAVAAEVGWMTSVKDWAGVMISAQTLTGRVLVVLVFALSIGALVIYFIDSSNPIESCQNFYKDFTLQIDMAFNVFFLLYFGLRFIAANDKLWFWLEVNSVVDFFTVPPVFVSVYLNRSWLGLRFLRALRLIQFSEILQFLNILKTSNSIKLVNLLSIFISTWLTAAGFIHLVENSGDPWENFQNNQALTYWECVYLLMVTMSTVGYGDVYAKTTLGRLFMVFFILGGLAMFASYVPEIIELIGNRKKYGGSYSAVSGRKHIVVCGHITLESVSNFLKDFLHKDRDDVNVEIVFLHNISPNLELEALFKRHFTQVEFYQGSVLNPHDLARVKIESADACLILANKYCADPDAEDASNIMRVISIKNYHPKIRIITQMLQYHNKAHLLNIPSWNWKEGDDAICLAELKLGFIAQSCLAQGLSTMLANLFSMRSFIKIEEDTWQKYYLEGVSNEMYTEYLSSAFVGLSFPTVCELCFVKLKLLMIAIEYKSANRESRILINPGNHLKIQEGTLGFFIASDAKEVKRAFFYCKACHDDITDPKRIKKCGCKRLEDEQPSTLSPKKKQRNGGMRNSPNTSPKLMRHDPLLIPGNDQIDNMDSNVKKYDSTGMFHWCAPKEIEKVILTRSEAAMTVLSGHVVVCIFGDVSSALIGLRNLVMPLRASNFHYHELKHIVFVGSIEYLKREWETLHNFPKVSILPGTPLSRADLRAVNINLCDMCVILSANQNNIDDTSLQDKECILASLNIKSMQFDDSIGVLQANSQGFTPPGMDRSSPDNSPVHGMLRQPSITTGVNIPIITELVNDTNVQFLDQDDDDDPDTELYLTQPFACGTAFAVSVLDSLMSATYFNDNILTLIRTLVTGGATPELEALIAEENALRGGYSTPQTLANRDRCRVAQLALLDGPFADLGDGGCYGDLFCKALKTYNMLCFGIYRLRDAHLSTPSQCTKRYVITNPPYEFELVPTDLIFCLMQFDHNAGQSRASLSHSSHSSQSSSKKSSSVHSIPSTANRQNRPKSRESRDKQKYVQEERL
T1 sequence (Q28067 2-191 partner limits assumed): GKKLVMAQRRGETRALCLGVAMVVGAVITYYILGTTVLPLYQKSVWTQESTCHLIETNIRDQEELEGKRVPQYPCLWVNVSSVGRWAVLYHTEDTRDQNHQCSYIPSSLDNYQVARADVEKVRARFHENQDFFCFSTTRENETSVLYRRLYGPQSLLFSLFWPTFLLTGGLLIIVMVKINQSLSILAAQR

As for `O=[N+]([O-])c1ccc(CNc2cc(NCc3ccc([N+](=O)[O-])cc3)cc(C(F)(F)F)c2)cc1` [Compound 1], the “Em effect: ratio of the compound effect compared to the maximal effect of NS004” value (“Em effect: ratio of the compound effect” for short) is given as “+ (0-1 = +)”.
To `Cc1cc(NCc2ccc(F)cc2F)ccc1NCc1ccc(F)cc1F` [Compound 102, N^1,N^4-bis-(2,4-difluorobenzyl)-2-methylbenzene-1,4-diamine] belongs “+ (0-1 = +)”.
As for `COc1cccc(CNc2cccc(NCc3cccc(Cl)c3)c2)c1` [Compound 58, N-(3-chlorobenzyl)-N′-(3-methoxybenzyl)-benzene-1,3-diamine], the entry is “+ (0-1 = +)”; as for `O=[N+]([O-])c1ccc(CNc2ccc(NCc3ccc4ccccc4c3)cc2Cl)cc1` [Compound 25], “+ (0-1 = +)”; as for `Cc1cc(NCc2ccc(-c3csnn3)cc2)ccc1NCc1ccc(-c2csnn2)cc1` [Compound 87], “+ (0-1 = +)”.
For `Fc1cccc(F)c1CNc1cccc(NCc2csc3ccc(Cl)cc23)c1` [Compound 49, N-(5-chlorobenzo[b]thiophen-3-ylmetbyl)-N′-(2,6-difluorobenzyl)-benzene-1,3-diamine], the “Em effect: ratio of the compound effect” value is “+ (0-1 = +)”.
As for `Clc1cccc(CNc2ccc(NCc3ccc(Br)cc3)c(Cl)c2)c1` [Compound 21, N^1-(4-Bromobenzyl)-2-chloro-N^4-(3-chlorobenzyl)-benzene-1,4-diamine], the entry is “+ (0-1 = +)”; as for `O=[N+]([O-])c1ccc(CNc2ccc(NCc3ccc(Br)cc3)cc2Cl)cc1` [Compound 23], “+ (0-1 = +)”.
To `FC(F)(F)c1ccccc1CNc1ccc(NCc2ccccc2C(F)(F)F)cc1` [Compound 97] belongs “+ (0-1 = +)”; to `Clc1cc(NCc2ccc(Br)cc2)ccc1NCc1ccccc1` [Compound 19], “+ (0-1 = +)”.
As to `CS(=O)(=O)c1ccc(CNc2cccc(NCc3cc(F)cc(F)c3)c2)cc1` [Compound 51, N-(3,5-difluorobenzyl)-N′-(4-methanlesulfonylbenzyl)-benzene-1,3-diamine], the “Em effect: ratio of the compound effect” value was “+ (0-1 = +)”.
To `Clc1ccccc1CNc1ccc(NCc2ccccc2Cl)cc1` [Compound 95, N,N′-bis-(2-chlorobenzyl)-benzene-1,4-diamine] belongs “+ (0-1 = +)”.
As for `Fc1cccc(CNc2cccc(NCc3ccc(-c4csnn4)cc3)c2)c1` [Compound 44, N-(3-fluoro-benzyl)-N′-(4-[1,2,3]thiadiazol-4-yl-benzyl)-benzene-1,3-diamine], the entry is “+ (0-1 = +)”; as for `O=[N+]([O-])c1ccc(CNc2cccc(NCc3ccc(F)cc3)c2)o1` [Compound 46], “++ (>1-1.5 = ++)”.
In the case of `Fc1cccc(CNc2ccc(NCc3cccc(F)c3)c(Cl)c2)c1` [Compound 107], the “Em effect: ratio of the compound effect” value is “+ (0-1 = +)”.
For the compound `Fc1ccc(CNc2ccc(NCc3ccc(F)cc3F)cc2)c(F)c1` [Compound 99], the “Em effect: ratio of the compound effect” value is “+ (0-1 = +)”.
`Cc1cc(NCc2c(F)cccc2Cl)ccc1NCc1c(F)cccc1Cl` [Compound 93]: the “Em effect: ratio of the compound effect” value is reported as “+ (0-1 = +)”.
As for `Fc1ccc(CNc2cccc(NCc3cccc(Cl)c3)c2)c(Cl)c1` [Compound 66], the entry is “+ (0-1 = +)”; as for `O=[N+]([O-])c1ccc(CNc2cc(NCc3ccc4ccccc4c3)cc(C(F)(F)F)c2)cc1` [Compound 8], “+ (0-1 = +)”; as for `Clc1cccc(CNc2ccc(NCc3ccccc3)c(Cl)c2)c1` [Compound 20, N′-Benzyl-2-chloro-N^4-(3-chlorobenzyl)-benzene-1,4-diamine], “+ (0-1 = +)”.
As for `CC(C)(C)c1ccc(CNc2cccc(NCc3cccc(Cl)c3)c2)cc1` [Compound 42, N-(4tert-butylbenzyl)-N′-(3-chloro-benzyl)-benzene-1,3-diamine], the entry is “+ (0-1 = +)”; as for `FC(F)(F)c1ccccc1CNc1cccc(NCc2csc3ccc(Cl)cc23)c1` [Compound 62], “+ (0-1 = +)”; as for `Fc1ccc(CNc2cccc(NCc3ccc(F)cc3Cl)c2)c(Cl)c1` [Compound 37, N,N′-bis-(2-chloro-4-fluorobenzyl)-benzene-1,3-diamine], “++ (>1-1.5 = ++)”.
As for `Fc1cc(F)cc(CNc2cc(NCc3csc4ccc(Cl)cc34)cc(C(F)(F)F)c2)c1` [Compound 80], the entry is “+ (0-1 = +)”; as for `FC(F)(F)c1cc(NCc2ccc3ccccc3c2)cc(NCc2ccc3ccccc3c2)c1` [Compound 4], “+ (0-1 = +)”; as for `Fc1cccc(F)c1CNc1cccc(NCc2c(F)cccc2F)c1` [Compound 34, N,N′-bis-(2,6-difluorobenzyl)-benzene-1,3-diamine], “+ (0-1 = +)”.
For `Fc1cc(F)cc(CNc2cccc(NCc3ccc(-c4csnn4)cc3)c2)c1` [Compound 53, N-(3,5-difluorobenzyl)-N′-(4-[1,2,3]thiadiazol-4-yl-benzyl)-benzene-1,3-diamine], the “Em effect: ratio of the compound effect” value is recorded as “+ (0-1 = +)”.
As for `Cc1cc(NCc2cccc(F)c2)ccc1NCc1cccc(F)c1` [Compound 103, N^1,N^4-bis-(3-fluorobenzyl)-2-methylbenzene-1,4-diamnine], the “Em effect: ratio of the compound effect” value is on record as “+ (0-1 = +)”.
As for `Clc1cc(NCc2ccc(-c3csnn3)cc2)cc(Cl)c1NCc1ccc(-c2csnn2)cc1` [Compound 91], the entry is “+ (0-1 = +)”.
As for `FC(F)(F)c1cc(NCc2cccc(Cl)c2)cc(NCc2cccc(Cl)c2)c1` [Compound 3], the entry is “+ (0-1 = +)”; as for `COc1cccc(CNc2cc(NCc3cccc(Cl)c3)cc(C(F)(F)F)c2)c1` [Compound 82], “+ (0-1 = +)”; as for `Fc1cccc(CNc2ccc(NCc3cccc(F)c3)cc2)c1` [Compound 100, N,N′-bis(3-fluorobenzyl)-benzene-1,4-diamine], “+ (0-1 = +)”.
In the case of `Clc1cccc(CNc2ccc(NCc3ccc4ccccc4c3)c(Cl)c2)c1` [Compound 22], the “Em effect: ratio of the compound effect” value is listed as “+ (0-1 = +)”.
Regarding `Fc1ccc(CNc2cccc(NCc3ccc(F)cc3)c2)cc1` [Compound 26, N,N′-bis-(4-fluorobenzyl)-benzene-1,3-diamine], the “Em effect: ratio of the compound effect” value is reported as “+ (0-1 = +)”.
As for `Cc1cc(NCc2ccc(C(F)(F)F)cc2)ccc1NCc1ccc(C(F)(F)F)cc1` [Compound 101, 2-methyl-N1,N4-bis-(4-trifluoromethylbenzyl)-benzene-1,4-diamine], the entry is “+ (0-1 = +)”.
`COc1cccc(CNc2cccc(NCc3ccc(F)cc3Cl)c2)c1` [Compound 67]: the “Em effect: ratio of the compound effect” value is recorded as “+ (0-1 = +)”.
To `COc1cccc(CNc2cc(Cl)c(NCc3cccc(OC)c3)c(Cl)c2)c1` [Compound 90, 2,6-dichloro-N,N′-bis-(3-methoxy-benzyl)-benzene-1,4-diamine] belongs “+ (0-1 = +)”.
For the compound `CS(=O)(=O)c1ccc(CNc2cccc(NCc3cccc(F)c3)c2)cc1` [Compound 45], the “Em effect: ratio of the compound effect” value is on record as “+ (0-1 = +)”.
